# Tested on: eosinophil
# Assay: Eosinophil count in peripheral blood of the prostate cancer subject
# Conditions: Claritin in addition to Allegra from July 1, 2016
smiles,measurement,value
"CC(C)(C(=O)O)c1ccc(C(O)CCCN2CCC(C(O)(c3ccccc3)c3ccccc3)CC2)cc1 (stereo not shown) [Allegra, fexofenadine]","eosinophil count in peripheral blood, change in words",started to decrease
